Assay results reported in US8916686B2, “TDF-related compounds and analogs thereof” (Thrasos Innovation, Inc., priority 2004, dated 2014).

Legend:
[1] = system: synovial membrane-derived mesenchymal stem cells; test: Chondrogenic differentiation, extracellular matrix deposition by alcian blue staining; assay type: cell-based
Excerpt: Influence of compounds SEQ ID NO 16, 33, 45, 217, 221 on chondrogenic differentiation of synovial membrane-derived mesenchymal stem cells leading to increased extracellular matrix deposition as determined by alcian blue staining. SEQ ID NO:16, 33, 45, 217, and 221 correspond to Compounds E, A, C, B, and D, respectively.
TDFRP compounds can be used to in the prophylaxis or treatment of diseases of the oral cavity, e.g., by affecting direct capping of bioactive molecules, or inducing the formation of reparative dentin and coronal or radicular pulp mineralization (Goldberg et al., Am J. Dent. 2003 February; 16(1):66-76). Further, TDFRP can be used in the prophylaxis or treatment of periodontal disease. […] TDFRP compounds can be used in the prophylaxis or treatment of traumatic brain injury, e.g., stroke, see, e.g., Cairns and Finkelstein, Phys Med Rehabil Clin N Am. 2003 February; 14(1 Suppl):S135-42). Intravenous administration of BMP-7 after ischemia improves motor function in stroke rats (Chang et al., Stroke. 2003 February; 34(2):558-64) and the TDFRP compounds may protect against or repair reperfusion injury. […] Thrasos compounds that bind to ALK3, a type I receptor for BMP, are therefore analyzed to examine if they induce chondrogenic differentiation leading to extra cellular matrix deposition in synovial membrane-derived mesenchymal stem cells. […]

[2] = system: rat osteosarcoma (17/2.8) cells; test: Rat osteosarcoma (ROS) cell-based alkaline phosphatase assay; conditions: 0.02-200 uM, 2 days; relative to BMP-7 standard
Description: BMP interactions with Type I and Type II receptors can induce alkaline phosphatase activity, a marker for osteoblast activity, in ROS cells. An assay procedure as described earlier (Maliakal, J.C., Asahina, I., Hauschka, P. V., and Sampath, T. K. (1994) Growth factors 11, 227-234) was used to determine the biological activities of TDFRP compounds. In a typical experiment, rat osteosarcoma (17/2.8) cells are plated in 96 well plates (3.0×10^4 cells/well) and incubated overnight at 37 C in 5-6% CO2 incubator. The next day, healthy and confluent cells are treated with increasing concentrations of BMP-7 standard (1-10,000 ng/ml) served as positive control or TDFRP compounds (0.02-200 uM) prepared in medium containing 1% FBS and incubated for 2 days at 37 C in 5-6% CO2 incubator. The cellular content of alkaline phosphatase activity is determined by the method of Reddi and Huggins (Reddi, A. H., and Huggins, C. B (1972) Proc. Natl. Acad. Sci. USA 69, 1601-1605). Enzyme estimations are performed in 96 well plates. Following removal of culture medium, cells are washed with pre-warmed PBS (150 ul) and incubated in 100 ul of pre-warmed 1% Triton X-100 for 30 minutes at 37 C. Plates are centrifuged for 10 minutes at full speed, and recovered samples (15 ul) are assayed for enzyme activity by adding 90 ul p-nitrophenyl phosphate (Sigma) as a substrate in 0.05 M glycine-NaOH buffer, pH 9.3 and incubating for 20 minutes at 37 C. The reaction is stopped by adding 75 ul of 0.2 N NaOH/well and absorbance at 405/490 nm is measured on a Dynatech MR 700 plate reader. Results are expressed as relative activities compared to a BMP-7 standard.

[3] = system: TGF-beta1 induced EMT in epithelial cells; conditions: 100 ng/ml for 48 hours; cited from earlier work
[4] = system: mouse model of nephrotoxic serum nephritis; conditions: cited from earlier work
[5] = system: rat after ligation of the coronary artery; test: LAD occlusion model of myocardial injury (ischemia/reperfusion); assay type: in vivo; conditions: day 7; compound 10 mg/kg i.v., rhmBMP-7 160 μg/kg i.v.
Description: The efficacy of compound SEQ ID #45 in ameliorating the effects of myocardial ischemia was investigated in the rat after ligation of the coronary artery. […] unmanipulated rats, sorted into two large groups by initial body weight (>300 g pre-surgery) were evaluated. Fourteen rats underwent surgery on week, 12 rats underwent surgery on week 2 and rats were sorted into 3 treatment groups: Group 1, PBS; Group 2, positive control TDF-1; Group 3, test article SEQ ID #45 (see Table X).
Three days prior to surgery, a serum sample was collected from the tail vein of each rat (pre-bleed). On the day of surgery, each rat was administered compound intravenously 2 hr prior to surgery. Surgery was performed sequentially after intubation and ventilation with 0.5% isofluorane anesthetic. Lead II ECG was monitored throughout the surgery. A thoracotomy was performed and the main left coronary artery was occluded for 20 min using a snare technique (FIG. 16). Successful occlusion of the artery was confirmed by ST elevation in lead II ECG within the first 5 minutes of ligation, and by frequent ventricular arrhythmia after 10 minutes of ligation. The snare was released to restore blood flow. The original suture loop was left in place for subsequent re-occlusion on Day 7. After initiation of reperfusion, the chest cavity was closed with 2 layers of suture. Rats were weaned from the ventilator and observed until fully conscious and mobile. Antibiotic (QD) and analgesic (Q8D) were provided. Additional serum samples were collected 6, 24, 72 and 120 hours post occlusion. Additional compound, positive control or vehicle treatments were delivered by intravenous injection in the tail vein at 24, 72 and 120 hours post occlusion.
On Day 7, each rat was anesthetized (ketamine:xyline), the chest cavity re-opened and a terminal blood sample (1 ml) was withdrawn from the abdominal vein. Gross pathology (i.e. inflammation) was noted and graded on a 4 point inflammation scale: 0=no inflammation, 1=slight, 2=moderate, 3=severe and 4=complete pericarditis. The left coronary artery was then re-occluded using the existing stitch and a concentrated solution of Evans Blue dye in saline (20 mg/ml; 0.5 ml/rat) was injected into the heart apex to stain the non-ischemic cardiac tissue blue. The heart was then arrested by injection of a saturated solution of potassium chloride into the right ventricle. The heart was then excised, wrapped in cellophane and stored at −20° C. for 1.5 hour. The cold heart was cut into 10 cross-sectional slices (2 mm/slice) and each section was numbered and incubated separately in triphenyltetrazolium chloride (1% TTC in PBS) for 10 minutes at 37° C. prior to fixing in 4% formaldehyde. Subsequently, each slice was photographed. For each slice, the “area at risk (AR)” and the “area occupied by necrosis (AN)” were measured by morphometry. The ratio of AN to AR is a measure of the degree of damage resulting from the occlusion (FIG. 17A-FIG. 17B).

Molecule | deposition of the extracellular matrix [1] | induction of alkaline phosphatase activity [2] | other results
CIVNSSDDFLCKKYRS [SEQ ID NO 16] | significantly increased the deposition of the extracellular matrix |  | 
CYFDDSSKVICKKYRS [SEQ ID NO 130] |  | did not induce alkaline phosphatase activity | 
CYFDDSSQVLCKKYRS [SEQ ID NO 65] |  | did not induce alkaline phosphatase activity | 
CYFNDSSQVLCKRYRS [SEQ ID NO 221] | significantly increased the deposition of the extracellular matrix | did not induce alkaline phosphatase activity | 
BMP-7: bone morphogenetic protein-7 (OP-1, TDF-1); mature form of recombinant human BMP-7 used as positive control (protein) STGSKQRSQNRSKTPKNQEALRMANVAENSSSDQRQACKKHELYVSFRDLGWQDWIIAPEGYAAYYCEGECAFPLNSYMNATNHAIVQTLVHFINPETVPKPCCAPTQLNAISVLYFDDSSNVILKKYRNMVVRACGCH |  |  | reversal of TGF-beta1 induced EMT [3]: reverses TGF-beta1 induced EMT; progression to chronic renal disease ([4]; about 300 micrograms/kg, starting after one week of NTN): sufficient to prevent progression to chronic renal disease; renal pathology ([4]; treatment from week 3 through week 6 and from week 4 through week 6): almost completely reversed renal pathology; reduction in AN/AR ratio as compared to PBS-treated animals [5]: 7%
